We go through 12 compounds from patent US20210395239A1 (Hoffmann-La Roche Inc., priority 2018, published 2021).

One data set has as its target T1, CYP3A4 (Homo sapiens, UniProt P08684).
T1 construct: tissue BD-Gentest 452117; host or cells: human liver microsomes
In words: CYP inhibition assay in human liver microsome, CYP3A4. It is filed as in vitro ADME. As to conditions: human, human liver microsomes, probe midazolam 5 μM, substrate midazolam 5 μM, third value of 2C9/2D6/3A4. The protocol:
This is a high throughput screening assay used for assessment of reversible inhibition of CYP2C9, CYP2D6, and CYP3A4 activity of test compounds in human liver microsome (HLM) in early discovery stage.
10 mM DMSO stock solutions of test compounds were diluted in DMSO to generate 2 mM intermediate stock solution. 250 nL, of intermediate stock solution were transferred in duplicate into 3 separate 384 well microtitre plates (assay-ready plates). A mixture of HLM and each substrate was made up. 45 μL of HLM substrate mix was then transferred to each well of an assay ready plate and mixed. The negative (solvent) and positive controls (standard inhibitor for each CYP) were included in each assay ready plate. The assay ready plate was warmed to 37° C. in an incubator over 10 minutes. 5 μL pre-warmed NADPH regenerating system was added to each incubation well to start the reaction. Final incubation volume was 50 μL. The assay plate then was placed back in the 37° C. incubator. After incubation (10 minutes for CYP2D6) for 5 minutes, incubates were quenched by addition of 50 μL 100% acetonitrile containing internal standards (400 ng/mL 13C6-4′-OH-Diclofenac, 20 ng/mL D3-Dextrorphan and 20 ng/mL D4-1′OH-Midazolam). The supernatants were collected for RapidFire/MS/MS analysis.
RapidFire online solid phase extraction/sample injection system (Agilent) coupled with API4000 triple quadrupole mass spectrometer (AB Sciex) were used for sample analysis. The mobile phase composed of acetonitrile and water supplemented with 0.1% formic acid. A C4 solid phase extraction cartridge is used for sample separation. MS detection is achieved in positive ion MRM mode.
Peak areas for substrate, metabolite and internal standard are determined using the RapidFire integrator software (version 3.6.12009.12296). Peak area ratios (PAR) of metabolite and internal standard (stable-labelled metabolite) are then calculated. The measurement window for each experiment is then defined:
PAR (0% activity)=average PAR for all incubations containing concentrated inhibitor; Par (100% activity)=average PAR for all incubations containing no inhibitor (DMSO controls); % Activity (test inhibitor)=[PAR (test inhibitor)−PAR (0% activity)]/[PAR (100% activity)−PAR (0% activity)]; % Inhibition (test inhibitor)=100-% Activity (test inhibitor).
(Liver microsomes are vesicles of endoplasmic reticulum, rich in cytochrome P450 enzymes.)

A further data set addresses T2, hTLR9 (Homo sapiens, UniProt Q9NR96).
T2 sequence (Q9NR96 26-1032): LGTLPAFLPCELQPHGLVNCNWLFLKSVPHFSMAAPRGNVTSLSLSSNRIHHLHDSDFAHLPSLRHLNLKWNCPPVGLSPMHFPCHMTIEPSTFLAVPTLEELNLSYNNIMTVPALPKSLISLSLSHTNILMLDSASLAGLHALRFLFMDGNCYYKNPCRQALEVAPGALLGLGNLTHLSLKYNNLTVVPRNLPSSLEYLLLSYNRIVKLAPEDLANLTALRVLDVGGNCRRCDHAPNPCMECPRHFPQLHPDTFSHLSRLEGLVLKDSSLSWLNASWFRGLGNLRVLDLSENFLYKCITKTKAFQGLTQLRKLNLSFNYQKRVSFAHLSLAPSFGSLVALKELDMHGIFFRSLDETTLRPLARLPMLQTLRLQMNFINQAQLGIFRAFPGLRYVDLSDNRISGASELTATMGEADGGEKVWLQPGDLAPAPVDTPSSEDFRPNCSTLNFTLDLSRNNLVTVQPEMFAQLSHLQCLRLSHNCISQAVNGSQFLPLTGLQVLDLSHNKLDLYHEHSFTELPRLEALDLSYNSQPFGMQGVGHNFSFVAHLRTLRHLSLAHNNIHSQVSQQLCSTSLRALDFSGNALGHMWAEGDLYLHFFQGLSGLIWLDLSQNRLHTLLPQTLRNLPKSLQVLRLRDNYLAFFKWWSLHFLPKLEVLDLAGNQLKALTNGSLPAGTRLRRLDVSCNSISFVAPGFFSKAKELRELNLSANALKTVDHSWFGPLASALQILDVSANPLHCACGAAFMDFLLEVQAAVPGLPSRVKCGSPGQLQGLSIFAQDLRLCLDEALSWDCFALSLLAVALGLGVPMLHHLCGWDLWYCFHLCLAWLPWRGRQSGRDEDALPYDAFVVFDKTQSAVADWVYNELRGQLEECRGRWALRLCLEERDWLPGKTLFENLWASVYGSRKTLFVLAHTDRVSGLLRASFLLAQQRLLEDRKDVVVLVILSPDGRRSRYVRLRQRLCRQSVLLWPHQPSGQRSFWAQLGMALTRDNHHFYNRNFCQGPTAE
Nature of the data set: HEK293-Blue-hTLR-9 cells assay (SEAP reporter, ODN2006 stimulation). It counts as cell-based. The arrangement: host or cells: HEK293 (HEK-Blue hTLR9). As to conditions: HEK293-Blue-hTLR9 cells, ODN2006, 20 hrs; read-out: HEK/hTLR9 IC50. In a few lines: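 Antagonism read as lowered SEAP reporter absorbance (620–655 nm, QUANTI-Blue, 2 h, 37 °C) in supernatants. Before that, ODN2006-stimulated HEK293-Blue cells stably expressing human TLR9 were exposed to compound dilutions at 1% final DMSO for 20 h at 37 °C.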

T1 sequence (P08684 whole entry): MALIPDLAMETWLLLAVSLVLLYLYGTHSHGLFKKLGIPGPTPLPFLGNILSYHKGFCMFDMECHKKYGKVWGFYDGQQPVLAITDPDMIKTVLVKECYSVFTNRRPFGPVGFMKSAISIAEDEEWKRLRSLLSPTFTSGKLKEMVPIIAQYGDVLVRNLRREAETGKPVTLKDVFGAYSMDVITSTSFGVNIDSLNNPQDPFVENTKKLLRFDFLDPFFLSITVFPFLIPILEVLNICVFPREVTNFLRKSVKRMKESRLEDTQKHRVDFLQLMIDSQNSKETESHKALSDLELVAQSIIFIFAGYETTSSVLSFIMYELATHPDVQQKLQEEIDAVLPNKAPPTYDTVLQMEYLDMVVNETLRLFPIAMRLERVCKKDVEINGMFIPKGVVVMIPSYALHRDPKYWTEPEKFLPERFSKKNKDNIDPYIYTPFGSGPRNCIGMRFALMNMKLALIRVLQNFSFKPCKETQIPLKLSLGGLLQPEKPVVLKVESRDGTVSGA

Regarding `[2H]c1ccc2c(N3C[C@H](CN4CCN(c5ccc(N6CC(C)(N)C6)nc5)CC4)O[C@H](C)C3)ccc(C#N)c2n1` [Example 132, 5-[(2S,6R)-2-[[4-[6-(3-amino-3-methyl-azetidin-1-yl)-3-pyridyl]piperazin-1-yl]methyl]-6-methyl-morpholin-4-yl]-2-deuterio-quinoline-8-carbonitrile], the inhibition at 5 min, 10 µM against CYP3A4 came to 7.5%. The IC50 at hTLR9 turned out to be 0.14 µM.

As to `[2H]c1ccc2c(N3C[C@H](CN4CCN(c5nc(C)cc(N6C[C@H](OC)[C@@H](N)C6)n5)CC4)O[C@H](C)C3)ccc(C#N)c2n1` [Example 134, 5-[(2S,6R)-2-[[4-[4-[(3S,4S)-3-amino-4-methoxy-pyrrolidin-1-yl]-6-methyl-pyrimidin-2-yl]piperazin-1-yl]methyl]-6-methyl-morpholin-4-yl]-2-deuterio-quinoline-8-carbonitrile], the inhibition at 5 min, 10 µM on CYP3A4 stood at 47.5%. For the same compound, the IC50 on hTLR9 was 0.048 µM.

As to `[2H]c1ccc2c(N3C[C@H](CN4CCN(c5ccc(N6C[C@@H](N)[C@H](OC)C6)nc5)CC4)O[C@H](C)C3)ccc(C#N)c2n1` [Example 143, 5-[(2S,6R)-2-[[4-[6-[(3R,4R)-3-amino-4-methoxy-pyrrolidin-1-yl]-3-pyridyl]piperazin-1-yl]methyl]-6-methyl-morpholin-4-yl]-2-deuterio-quinoline-8-carbonitrile], the inhibition at 5 min, 10 µM at CYP3A4 was 18%. Further, the IC50 at hTLR9 was 0.047 µM.

On to `[2H]c1ccc2c(N3C[C@H](CN4CCN(c5ccc(N6CC7(CNCCO7)C6)nc5)CC4)O[C@H](C)C3)ccc(C#N)c2n1` [Example 152, 2-deuterio-5-[(2R,6S)-2-methyl-6-[[4-[6-(5-oxa-2,8-diazaspiro[3.5]nonan-2-yl)-3-pyridyl]piperazin-1-yl]methyl]morpholin-4-yl]quinoline-8-carbonitrile], for which the inhibition at 5 min, 10 µM against CYP3A4 stood at 35%. The IC50 on hTLR9 is 0.099 µM.

Consider `C[C@@H]1CN(c2ccc(C#N)n3ncc(F)c23)C[C@H](CN2CCN(c3ccc(N4CC(C)(N)C4)nc3)CC2)O1` [Example 154, 4-[(2S,6R)-2-[[4-[6-(3-amino-3-methyl-azetidin-1-yl)-3-pyridyl]piperazin-1-yl]methyl]-6-methyl-morpholin-4-yl]-3-fluoro-pyrazolo[1,5-a]pyridine-7-carbonitrile], for which the inhibition at 5 min, 10 µM on CYP3A4 is 10.5%. Also, at hTLR9, the IC50 amounted to 0.112 µM.

Take `C[C@@H]1CN(c2ccc(C#N)n3ncc(F)c23)C[C@H](CN2CC(c3ccc(N4CC(C)(N)C4)nc3)C2)O1` [Example 158, 4-[(2S,6R)-2-[[3-[6-(3-amino-3-methyl-azetidin-1-yl)-3-pyridyl]azetidin-1-yl]methyl]-6-methyl-morpholin-4-yl]-3-fluoro-pyrazolo[1,5-a]pyridine-7-carbonitrile]: the inhibition at 5 min, 10 µM against CYP3A4 is -0.5%. For the same compound, at hTLR9, the IC50 is 0.041 µM.

As to `C[C@@H]1CN(c2ccc(C#N)n3ncc(F)c23)C[C@H](CN2CC(c3ccc(N4CC(C)(N)C4)cc3)C2)O1` [Example 160, 4-[(2S,6R)-2-[[3-[4-(3-amino-3-methyl-azetidin-1-yl)phenyl]azetidin-1-yl]methyl]-6-methyl-morpholin-4-yl]-3-fluoro-pyrazolo[1,5-a]pyridine-7-carbonitrile], on CYP3A4, the inhibition at 5 min, 10 µM is 4.5%. For the same compound, the IC50 on hTLR9 amounted to 0.163 µM.

`[2H]c1ccc2c(N3C[C@H](CN4CCN(c5ccc(N[C@H]6CNC[C@H]6F)nc5)CC4)O[C@H](C)C3)ccc(C#N)c2n1` [Example 162, 2-deuterio-5-[(2S,6R)-2-[[4-[6-[[(3S,4R)-4-fluoropyrrolidin-3-yl]amino]-3-pyridyl]piperazin-1-yl]methyl]-6-methyl-morpholin-4-yl]quinoline-8-carbonitrile]: the inhibition at 5 min, 10 µM against CYP3A4 worked out at 42.5%. Moreover, at hTLR9, the IC50 stood at 0.036 µM.

As to `C[C@@H]1CN(c2ccc(C#N)n3nccc23)C[C@H](CN2CC(c3ccc(N4CC(C)(N)C4)cc3)C2)O1` [Example 163, 4-[(2S,6R)-2-[[3-[4-(3-amino-3-methyl-azetidin-1-yl)phenyl]azetidin-1-yl]methyl]-6-methyl-morpholin-4-yl]pyrazolo[1,5-a]pyridine-7-carbonitrile], the inhibition at 5 min, 10 µM at CYP3A4 was determined as 0.5%. In addition, the IC50 at hTLR9 was determined as 0.101 µM.

As for `CO[C@@H]1CN(c2ccc(C3CN(C[C@H]4CN(c5ccc(C#N)n6ncc(F)c56)C[C@@H](C)O4)C3)cn2)C[C@H]1N` [Example 164, 4-[(2S,6R)-2-[[3-[6-[(3R,4R)-3-amino-4-methoxy-pyrrolidin-1-yl]-3-pyridyl]azetidin-1-yl]methyl]-6-methyl-morpholin-4-yl]-3-fluoro-pyrazolo[1,5-a]pyridine-7-carbonitrile], at CYP3A4, the inhibition at 5 min, 10 µM worked out at 30.5%. In addition, on hTLR9, the IC50 came to 0.086 µM.

As to `C[C@@H]1CN(c2ccc(C#N)n3ncc(F)c23)C[C@H](CN2CC(c3ccc(N4C[C@@H]5C[C@H]4CN5)nc3)C2)O1` [Example 165, 4-[(2S,6R)-2-[[3-[6-[(1S,4S)-2,5-diazabicyclo[2.2.1]heptan-2-yl]-3-pyridyl]azetidin-1-yl]methyl]-6-methyl-morpholin-4-yl]-3-fluoro-pyrazolo[1,5-a]pyridine-7-carbonitrile], the inhibition at 5 min, 10 µM at CYP3A4 stood at 9%. Besides, the IC50 at hTLR9 came to 0.108 µM.

Turning to `CO[C@@H]1CN(c2ccc(N3CCN(C[C@H]4CN(c5ccc(C#N)n6ncc(F)c56)C[C@@H](C)O4)CC3)cn2)C[C@H]1N` [Example 166, 4-[(2S,6R)-2-[[4-[6-[(3R,4R)-3-amino-4-methoxy-pyrrolidin-1-yl]-3-pyridyl]piperazin-1-yl]methyl]-6-methyl-morpholin-4-yl]-3-fluoro-pyrazolo[1,5-a]pyridine-7-carbonitrile], the inhibition at 5 min, 10 µM against CYP3A4 was determined as 35.5%. The IC50 at hTLR9 was 0.046 µM.

A word on the inhibition: it is the change of the read-out against control, counted positive when it falls.
